ChEMBL document CHEMBL4483862, “Open-source discovery of chemical leads for next-generation chemoprotective antimalarials” (2018)

Tested on: Plasmodium berghei
Test: Luciferase/luciferin-expressing antifolate-resistant parasites were used to infect a culture of HepG2 cells that were pre-incubated with compounds. Infected hepatocytes emit light due to the luciferase reaction. Assay results are presented as the percent inhibition of light emission compared to control. […]
Type: functional
Conditions: sporozoite; for IC90: read-out: LUCIFERASE INFECTION ASSAY - IC90
[1] = read-out: LUCIFERASE INFECTION ASSAY - IC50

| SMILES | IC90 [µM] | IC50 [1] [µM] | further results |
| --- | --- | --- | --- |
| O=C(Nc1cc(Cl)cc(Cl)c1)c1cc(Br)ccc1O | 1.35 | – | IC50 (HEPG2TOX_HILL_SLOPE 1.83, HEPG2TOX_R_SQUARED 0.974, PBLUC_HILL_SLOPE 1.75, PBLUC_R_SQUARED 0.827, read-out: LUCIFERASE INFECTION ASSAY - IC50): 0.385 µM |
| C/C(=N\Nc1ccnc2cc(Cl)ccc12)c1ccc(-n2ccnc2)cc1 | > 10 | – | IC50 (HEPG2TOX_HILL_SLOPE 8.87, HEPG2TOX_R_SQUARED 0.252, read-out: LUCIFERASE INFECTION ASSAY - IC50): > 10 µM |
| O=C(CCCc1ccc(F)cc1)c1ccc2c(c1)OCCO2 | 0.926 | – | IC50 (FFLUC_HILL_SLOPE 3.34, FFLUC_R_SQUARED 0.538, PBLUC_HILL_SLOPE 0.746, PBLUC_R_SQUARED 0.706, read-out: LUCIFERASE INFECTION ASSAY - IC50): 0.0487 µM |
| CNc1snc(C)c1C(=O)OCc1csc(-c2ccccc2)n1 | 1.26 | – | IC50 (HEPG2TOX_HILL_SLOPE 0.385, HEPG2TOX_R_SQUARED 0.759, PBLUC_HILL_SLOPE 1.19, PBLUC_R_SQUARED 0.693, read-out: LUCIFERASE INFECTION ASSAY - IC50): 0.2 µM |
| O=c1[nH]nc(Sc2ncc([N+](=O)[O-])s2)n1-c1ccccc1C(F)(F)F | > 8.48 | – | IC50 (FFLUC_HILL_SLOPE 106, FFLUC_R_SQUARED 0.375, read-out: LUCIFERASE INFECTION ASSAY - IC50): > 8.48 µM |
| Cn1ccc2cc(-c3cnc4cnc(-c5ccccc5Cl)cn34)ccc21 | 0.043 | – | IC50 (HEPG2TOX_HILL_SLOPE 0.673, HEPG2TOX_R_SQUARED 0.619, PBLUC_HILL_SLOPE 2.33, PBLUC_R_SQUARED 0.732, read-out: LUCIFERASE INFECTION ASSAY - IC50): 0.0168 µM |
| Cc1ccc(S(=O)(=O)N2CCSc3cc(Cl)ccc32)cc1 | 3.49 | – | IC50 (HEPG2TOX_HILL_SLOPE 2.16, HEPG2TOX_R_SQUARED 0.961, PBLUC_HILL_SLOPE 19.3, PBLUC_R_SQUARED 0.449, read-out: LUCIFERASE INFECTION ASSAY - IC50): 3.12 µM |
| CCN(CC)S(=O)(=O)c1ccc(/C=C/C(=O)N2CC=C(c3ccccc3)CC2)cc1 | > 10 | > 10 | – |
| CS(=O)(=O)c1ccc(CN2CCN3C(C(=O)Nc4ccc(F)c(Cl)c4)=COC3=NC2=O)cc1 | > 10 | – | IC50 (HEPG2TOX_HILL_SLOPE 2.2, HEPG2TOX_R_SQUARED 0.936, PBLUC_HILL_SLOPE 1.17, PBLUC_R_SQUARED 0.243, read-out: LUCIFERASE INFECTION ASSAY - IC50): > 10 µM |
| Cn1c(N)c(C(=O)COC(=O)c2c3c(nc4ccccc24)CCCCC3)c(=O)n(C)c1=O | > 10 | 8.99 | – |
| CC(C)(C)c1ccc(OCCNC(=O)c2cccnc2)cc1 | > 11.1 | > 11.1 | – |
| C=CCn1c(SCc2c(C(=O)OCC)sc(N)c2C#N)nnc1-c1ccc(Cl)cc1Cl | > 10 | > 10 | – |
| Cc1cc(C(=O)N/N=C/c2ccc(Sc3ncccn3)c([N+](=O)[O-])c2)c(C)n1-c1ccccc1 | > 10 | > 10 | – |
| Fc1ccc(-c2csc3ncnc(NCc4ccc(CN5CCOCC5)cc4)c23)cc1 | 7.44 | – | IC50 (HEPG2TOX_HILL_SLOPE 0.615, HEPG2TOX_R_SQUARED 0.878, PBLUC_HILL_SLOPE 1.43, PBLUC_R_SQUARED 0.575, read-out: LUCIFERASE INFECTION ASSAY - IC50): 1.59 µM |
| COc1ccc(C2CC(=O)Nc3ccc4ccccc4c32)c(OC)c1OC (stereo unspecified) | > 9.08 | > 9.08 | – |
| Cc1cccn2cc(CN3CCN(S(=O)(=O)c4ccc(Cl)c(C(F)(F)F)c4)CC3)nc12 | > 10 | > 10 | – |
| CN(CC(=O)Nc1ccc(Cl)c(C(F)(F)F)c1)c1nc(CN2CCCCC2)nc2sc3c(c12)CCCC3 | 9.99 | – | IC50 (HEPG2TOX_HILL_SLOPE 2.23, HEPG2TOX_R_SQUARED 0.93, PBLUC_HILL_SLOPE 4.09, PBLUC_R_SQUARED 0.44, read-out: LUCIFERASE INFECTION ASSAY - IC50): 5.84 µM |
| COC(=O)c1ccc(NC(=O)c2ccc(-c3cccc(Br)c3)nc2C)s1 | > 10 | – | IC50 (PBLUC_HILL_SLOPE 7.52, PBLUC_R_SQUARED 0.673, read-out: LUCIFERASE INFECTION ASSAY - IC50): 9.09 µM |
| CCOCCCn1c(SCc2nc(-c3cccs3)oc2C)nc2sc(C)c(C)c2c1=O | > 10 | > 10 | – |
| COc1ccc2cc(-c3nc4ccc(Cl)cc4c(-c4ccccc4F)c3C)ccc2c1 | > 10 | 6.1 | – |
| COC(=O)c1sc2[nH]c(COC(=O)c3ccccc3)nc(=O)c2c1C | > 10 | > 10 | – |
| C=CCN(C(=O)C1CCN(S(=O)(=O)c2cccs2)CC1)c1nc2c(s1)CCCC2 | > 10 | > 10 | – |
| Cc1nc(Sc2ncnc3c(Br)cccc23)sc1CC(N)=O | > 10 | > 10 | – |
